Results on 15 compounds are retold here after patent publication US10513521B2, “Compositions and methods for inhibiting BMP” (The Brigham and Women's Hospital, Inc., priority 2014, dated 2019).

The target of assay [1] is T1, ALK5 (Homo sapiens, UniProt P36897).
T1 sequence (P36897 34-503): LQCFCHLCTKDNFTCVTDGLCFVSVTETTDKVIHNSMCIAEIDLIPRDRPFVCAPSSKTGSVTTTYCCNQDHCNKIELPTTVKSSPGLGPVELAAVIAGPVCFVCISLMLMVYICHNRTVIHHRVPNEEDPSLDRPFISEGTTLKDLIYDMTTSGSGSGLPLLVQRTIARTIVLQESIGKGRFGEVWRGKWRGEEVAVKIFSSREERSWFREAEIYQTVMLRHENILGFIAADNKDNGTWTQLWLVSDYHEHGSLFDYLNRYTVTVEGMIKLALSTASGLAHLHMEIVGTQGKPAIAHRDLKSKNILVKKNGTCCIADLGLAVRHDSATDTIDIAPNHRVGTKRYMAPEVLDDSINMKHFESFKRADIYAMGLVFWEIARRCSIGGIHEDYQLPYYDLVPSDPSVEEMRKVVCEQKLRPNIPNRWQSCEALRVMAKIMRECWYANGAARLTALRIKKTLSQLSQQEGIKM
Kind of assay: TR-FRET enzymatic ALK kinase assay, ALK5. Background: In TR-FRET formats the signal depends on donor and acceptor labels being close together.
Method: Six ALK kinase enzyme assays were developed for determination of compound activities on ALK1, ALK2, ALK3, ALK4, ALK5 and ALK6.
(§1) Briefly, the ALKs enzymatic assay was initiated by dispense 2.5 μl enzyme in 1× kinase reaction buffer. The assay plate was then added with compounds followed by incubation at room temperature for 10 minutes. Then 2.5 μl/well substrate was added.

Assay [2] deals with ALK1 (Homo sapiens, UniProt P37023). The experiment in a line: TR-FRET enzymatic ALK kinase assay, ALK1.
ALK1, sequence (P37023 22-503): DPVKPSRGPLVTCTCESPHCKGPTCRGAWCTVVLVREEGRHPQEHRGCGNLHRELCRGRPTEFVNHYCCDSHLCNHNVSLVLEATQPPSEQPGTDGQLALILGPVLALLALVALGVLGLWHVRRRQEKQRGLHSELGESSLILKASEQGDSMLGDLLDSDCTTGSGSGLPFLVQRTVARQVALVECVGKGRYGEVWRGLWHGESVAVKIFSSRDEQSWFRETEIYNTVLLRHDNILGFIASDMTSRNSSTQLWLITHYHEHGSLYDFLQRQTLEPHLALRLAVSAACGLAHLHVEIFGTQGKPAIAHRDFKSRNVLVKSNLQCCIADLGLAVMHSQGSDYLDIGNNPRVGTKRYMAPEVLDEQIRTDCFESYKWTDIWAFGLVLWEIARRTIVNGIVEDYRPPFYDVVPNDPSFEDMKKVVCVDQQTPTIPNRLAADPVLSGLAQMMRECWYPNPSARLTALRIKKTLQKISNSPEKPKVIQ
Method: as §1
Assay [3] deals with ALK6 (Homo sapiens, UniProt O00238). The experiment in a line: TR-FRET enzymatic ALK kinase assay, ALK6.
ALK6, sequence (O00238 14-502): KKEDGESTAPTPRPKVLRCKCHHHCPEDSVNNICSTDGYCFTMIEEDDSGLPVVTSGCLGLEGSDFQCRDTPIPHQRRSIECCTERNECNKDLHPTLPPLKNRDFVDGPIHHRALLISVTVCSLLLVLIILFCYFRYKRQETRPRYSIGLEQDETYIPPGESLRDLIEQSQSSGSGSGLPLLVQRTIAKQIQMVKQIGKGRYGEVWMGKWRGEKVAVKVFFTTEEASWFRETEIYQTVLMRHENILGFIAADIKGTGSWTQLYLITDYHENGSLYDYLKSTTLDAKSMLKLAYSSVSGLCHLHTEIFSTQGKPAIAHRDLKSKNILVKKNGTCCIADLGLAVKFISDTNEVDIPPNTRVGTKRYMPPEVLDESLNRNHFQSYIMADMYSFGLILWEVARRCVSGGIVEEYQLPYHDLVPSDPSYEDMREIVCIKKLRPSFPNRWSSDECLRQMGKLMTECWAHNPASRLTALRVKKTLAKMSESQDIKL
Method: as §1
The target of assay [4] is ALK3 (Homo sapiens, UniProt P36894). The experiment in a line: TR-FRET enzymatic ALK kinase assay, ALK3.
ALK3, sequence (P36894 24-532): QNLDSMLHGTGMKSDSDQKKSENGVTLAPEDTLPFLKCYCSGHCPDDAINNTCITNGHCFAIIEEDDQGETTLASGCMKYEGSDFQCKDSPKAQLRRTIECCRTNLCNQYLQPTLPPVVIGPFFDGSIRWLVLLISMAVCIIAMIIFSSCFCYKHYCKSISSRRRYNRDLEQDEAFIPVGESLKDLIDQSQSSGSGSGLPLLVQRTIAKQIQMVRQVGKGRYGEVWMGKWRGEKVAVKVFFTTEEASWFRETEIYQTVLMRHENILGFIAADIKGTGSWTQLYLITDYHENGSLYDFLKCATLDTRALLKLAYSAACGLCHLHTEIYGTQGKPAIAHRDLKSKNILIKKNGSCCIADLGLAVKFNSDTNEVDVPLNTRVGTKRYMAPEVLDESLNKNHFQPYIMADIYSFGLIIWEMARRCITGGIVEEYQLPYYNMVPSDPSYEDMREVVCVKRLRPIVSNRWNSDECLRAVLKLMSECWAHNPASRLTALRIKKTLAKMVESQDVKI
Method: as §1
Assay [5] concerns the target T2, ALK4 (Homo sapiens, UniProt P36896).
T2 sequence (P36896 24-505): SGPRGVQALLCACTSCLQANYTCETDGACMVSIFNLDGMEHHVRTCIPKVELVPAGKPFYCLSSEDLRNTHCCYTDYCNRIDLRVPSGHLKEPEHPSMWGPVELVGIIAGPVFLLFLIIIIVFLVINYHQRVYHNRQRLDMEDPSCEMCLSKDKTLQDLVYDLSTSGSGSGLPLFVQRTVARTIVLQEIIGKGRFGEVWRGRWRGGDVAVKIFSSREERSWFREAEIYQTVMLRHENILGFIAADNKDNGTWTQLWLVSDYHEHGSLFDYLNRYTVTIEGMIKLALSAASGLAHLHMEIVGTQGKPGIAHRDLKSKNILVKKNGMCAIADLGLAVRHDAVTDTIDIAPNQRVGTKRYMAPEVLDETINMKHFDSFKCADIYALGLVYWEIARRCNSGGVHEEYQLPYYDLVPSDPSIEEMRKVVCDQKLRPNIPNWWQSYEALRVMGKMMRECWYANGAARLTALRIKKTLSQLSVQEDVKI
Kind of assay: TR-FRET enzymatic ALK kinase assay, ALK4.
Method: as §1

The target of assay [6] is T3, ALK2 (Homo sapiens, UniProt Q04771).
T3 sequence (Q04771 21-509): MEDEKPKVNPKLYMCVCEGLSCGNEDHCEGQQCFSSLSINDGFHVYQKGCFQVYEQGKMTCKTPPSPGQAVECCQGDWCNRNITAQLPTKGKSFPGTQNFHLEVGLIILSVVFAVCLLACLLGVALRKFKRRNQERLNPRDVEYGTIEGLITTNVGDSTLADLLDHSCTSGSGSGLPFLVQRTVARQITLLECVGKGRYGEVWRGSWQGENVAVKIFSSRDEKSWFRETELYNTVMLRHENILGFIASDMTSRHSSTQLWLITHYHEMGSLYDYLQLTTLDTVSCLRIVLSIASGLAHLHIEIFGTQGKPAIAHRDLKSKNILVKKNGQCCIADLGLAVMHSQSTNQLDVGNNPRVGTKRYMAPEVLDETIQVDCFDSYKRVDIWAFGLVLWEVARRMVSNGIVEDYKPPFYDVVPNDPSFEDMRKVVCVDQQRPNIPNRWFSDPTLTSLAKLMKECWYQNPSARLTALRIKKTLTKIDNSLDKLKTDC
The experiment in a line: TR-FRET enzymatic ALK kinase assay, ALK2.
Method: as §1

Usually IC50 stands for the midpoint of a concentration-inhibition curve. For `C[C@@H](O)c1cccc(-c2cnn3cc(-c4ccc(CCN5CCOCC5)cc4)cnc23)c1` [Compound 158, (R)-1-(3-(6-(4-(2-morpholinoethyl)phenyl)pyrazolo[1,5-a]pyrimidin-3-yl)phenyl)ethanol], the IC50 in assay [1] was greater than 10 µM; in assay [2], 2.5 µM; in assay [3], greater than 10 µM; in assay [4], greater than 10 µM; in assay [5], greater than 10 µM; in assay [6] it was 0.25 µM.

Regarding `CS(=O)(=O)c1cccc(-c2cnn3cc(-c4ccc(CCN5CCC(O)CC5)cc4)cnc23)c1` [Compound 140, 1-(4-(3-(3-(methylsulfonyl)phenyl)pyrazolo[1,5-a]pyrimidin-6-yl)phenethyl)piperidin-4-ol], the half-inhibitory concentration (IC50) in assay [1] was greater than 10 µM; in assay [2] it was 0.62 µM; in assay [3], greater than 10 µM; in assay [4], 7.6 µM; in assay [5], greater than 10 µM; in assay [6], 0.14 µM.

Consider `C[C@H](O)c1cccc(-c2cnn3cc(-c4ccc(OC5(CN6CCC7(CC6)CNC7)CC5)cc4)cnc23)c1` [Compound 197, (S)-1-(3-(6-(4-(1-(2,7-diazaspiro[3.5]nonan-7-ylmethyl)cyclopropoxy)phenyl)pyrazolo[1,5-a]pyrimidin-3-yl)phenyl)ethanol], for which the half-maximal inhibitory concentration (IC50) in assay [1] is greater than 10 µM; in assay [2], 0.5 µM; in assay [3], greater than 10 µM; in assay [4], 2 µM; in assay [5], greater than 10 µM; in assay [6] it was 0.052 µM.

For `CC(O)c1cccc(-c2cnn3cc(-c4ccc(C5CCNC5)cc4)cnc23)c1` (stereo not drawn) [Compound 130, 1-(3-(6-(4-(pyrrolidin-3-yl)phenyl)pyrazolo[1,5-a]pyrimidin-3-yl)phenyl)ethanol], the IC50 is greater than 10 µM in assay [1]; 0.61 µM in assay [2]; greater than 10 µM in assay [3]; greater than 10 µM in assay [4]; greater than 10 µM in assay [5]; 0.13 µM in assay [6].

Regarding `CC(O)c1cccc(-c2cnn3cc(-c4ccc(C5CCCNC5)cc4)cnc23)c1` (stereo not drawn) [Compound 138, 1-(3-(6-(4-(piperidin-3-yl)phenyl)pyrazolo[1,5-a]pyrimidin-3-yl)phenyl)ethanol], the IC50 in assay [1] is greater than 10 µM; in assay [2] it was 0.58 µM; in assay [3] it was greater than 10 µM; in assay [4] it was 4.9 µM; in assay [5] it was greater than 10 µM; in assay [6], 0.11 µM.

Turning to `NC1(c2ccc(-c3cnc4c(-c5ccc(S(N)(=O)=O)c6ccccc56)cnn4c3)cc2)CNC1` [Compound 209, 4-(6-(4-(3-aminoazetidin-3-yl)phenyl)pyrazolo[1,5-a]pyrimidin-3-yl)naphthalene-1-sulfonamide], the IC50 is greater than 10 µM in assay [1]; 0.34 µM in assay [2]; greater than 10 µM in assay [3]; greater than 10 µM in assay [4]; greater than 10 µM in assay [5]; 0.069 µM in assay [6].

In the case of `C[C@H](O)c1cccc(-c2cnn3cc(-c4ccc(OC5(CN6CCCCC6)CC5)cc4)cnc23)c1` [Compound 199, (S)-1-(3-(6-(4-(1-(piperidin-1-ylmethyl)cyclopropoxy)phenyl)pyrazolo[1,5-a]pyrimidin-3-yl)phenyl)ethanol], the IC50 in assay [1] is greater than 10 µM; in assay [2], 0.61 µM; in assay [3], 9.8 µM; in assay [4], 0.62 µM; in assay [5] it was greater than 10 µM; in assay [6], 0.025 µM.

Turning to `CS(=O)(=O)c1cccc(-c2cnn3cc(-c4ccc(CCN5CCCC(O)C5)cc4)cnc23)c1` (stereo not drawn) [Compound 141, 1-(4-(3-(3-(methylsulfonyl)phenyl)pyrazolo[1,5-a]pyrimidin-6-yl)phenethyl)piperidin-3-ol], the IC50 is greater than 10 µM in assay [1]; 0.75 µM in assay [2]; greater than 10 µM in assay [3]; 5.9 µM in assay [4]; greater than 10 µM in assay [5]; 0.098 µM in assay [6].

`CC(N)c1ccc(-c2cnc3c(-c4cccc(C(C)O)c4)cnn3c2)cc1` (stereo not drawn) [Compound 188, 1-(3-(6-(4-(1-aminoethyl)phenyl)pyrazolo[1,5-a]pyrimidin-3-yl)phenyl)ethanol]: the IC50 is greater than 10 µM in assay [1]; 0.97 µM in assay [2]; 8.1 µM in assay [3]; 4.7 µM in assay [4]; 4.1 µM in assay [5]; 0.073 µM in assay [6].

`NS(=O)(=O)c1ccc(-c2cnn3cc(-c4ccc(OC5(CN6CCCC6)CC5)cc4)cnc23)c2ccccc12` [Compound 207, 4-(6-(4-(1-(pyrrolidin-1-ylmethyl)cyclopropoxy)phenyl)pyrazolo[1,5-a]pyrimidin-3-yl)naphthalene-1-sulfonamide]: the IC50 in assay [1] is greater than 10 µM; in assay [2] it was 0.17 µM; in assay [3] it was greater than 10 µM; in assay [4] it was greater than 10 µM; in assay [5], greater than 10 µM; in assay [6] it was 0.016 µM.

For the compound `NC(c1ccc(-c2cnn3cc(-c4ccc(OCCN5CCCC5)cc4)cnc23)c2ccccc12)C(F)(F)F` (stereo not drawn) [Compound 162, 2,2,2-trifluoro-1-(4-(6-(4-(2-(pyrrolidin-1-yl)ethoxy)phenyl)pyrazolo[1,5-a]pyrimidin-3-yl)naphthalen-1-yl)ethanamine], the IC50 in assay [1] is greater than 10 µM; in assay [2], greater than 10 µM; in assay [3], greater than 10 µM; in assay [4], greater than 10 µM; in assay [5], greater than 10 µM; in assay [6], 8.1 µM.

`C[C@@H]1CNC[C@H](C)N1c1ccc(-c2cnc3c(-c4ccc(F)c(-c5nnn[nH]5)c4)cnn3c2)cc1` [Compound 72, 6-(4-((2R,6S)-2,6-dimethylpiperazin-1-yl)phenyl)-3-(4-fluoro-3-(1H-tetrazol-5-yl)phenyl)pyrazolo[1,5-a]pyrimidine]: the half-maximal inhibitory concentration (IC50) in assay [1] is greater than 10 µM; in assay [2], 0.12 µM; in assay [3], 0.33 µM; in assay [4], 0.22 µM; in assay [5], greater than 10 µM; in assay [6] it was 0.016 µM.

As to `C[C@@H]1CNC[C@H](C)N1c1ccc(-c2cnc3c(-c4ccc(C(=O)C(F)(F)F)c5ccccc45)cnn3c2)cc1` [Compound 30, 1-(4-(6-(4-((2R,6S)-2,6-dimethylpiperazin-1-yl)phenyl)pyrazolo[1,5-a]pyrimidin-3-yl)naphthalen-1-yl)-2,2,2-trifluoroethanone], the IC50 was 22.9 µM in assay [1]; 0.305 µM in assay [2]; 2.38 µM in assay [3]; 1.61 µM in assay [4]; 7.99 µM in assay [5]; 0.206 µM in assay [6].

Turning to `CC(O)c1cccc(-c2cnn3cc(-c4ccc(CCN5CCCC5)cc4)cnc23)c1` (stereo not drawn) [Compound 146, 1-(3-(6-(4-(2-(pyrrolidin-1-yl)ethyl)phenyl)pyrazolo[1,5-a]pyrimidin-3-yl)phenyl)ethanol], the IC50 was greater than 10 µM in assay [1]; 1.4 µM in assay [2]; greater than 10 µM in assay [3]; 8 µM in assay [4]; greater than 10 µM in assay [5]; 0.22 µM in assay [6].

As to `CS(=O)(=O)c1cccc(-c2cnn3cc(-c4ccc(CCN5CCCC5)cc4)cnc23)c1` [Compound 128, 3-(3-(methylsulfonyl)phenyl)-6-(4-(2-(pyrrolidin-1-yl)ethyl)phenyl)pyrazolo[1,5-a]pyrimidine], the concentration for half-maximal inhibition (IC50) in assay [1] was greater than 10 µM; in assay [2], 0.39 µM; in assay [3], greater than 10 µM; in assay [4], 6.3 µM; in assay [5], greater than 10 µM; in assay [6], 0.08 µM.
